Melting point data for 88 compounds are collected here from a melting point compilation (Tetko et al.; mined from patent text by program, amines drawn as free bases though some values may be those of a salt).

Each structure is given as a SMILES string.

Regarding `CC(=O)N1C(=O)N(c2cc(Cl)cc(Cl)c2)C(=O)[C@]12CN(Cc1ccccc1)C[C@H]2c1ccc(C#N)cc1` (relative stereo), the melting point turned out to be 224 °C.

The compound `CCc1n[nH]c(-c2ccccc2)c1NC(=O)c1ccccc1` returned a melting point of 215 to 216 °C.

In turn, `COC(=O)c1cc(-c2ccc(Cl)c(C)c2)n(Cc2ccc(C)cc2)n1` gave a melting point of 98 °C.

In turn, `Cc1noc(C)c1-c1ccccc1C=NC(c1ccccc1)c1ccccc1` came in with a melting point of 165 to 167 °C.

As to `COc1ccc(N2CCN(c3ccc(-n4c(C)nnc4S)cc3)CC2)cc1`, the melting point is 260 °C.

In turn, `CCOC(=O)c1cnc(N2CCC[C@H]2CO)nc1NCc1ccc(OC)c(Cl)c1` returned a melting point of 88 to 90 °C.

In turn, `CC(Cc1cc(C(C)(C)C)c(O)c(C(C)(C)C)c1)C(=O)Oc1ccc(C(=O)c2cc(C(C)(C)C)c(O)c(C(C)(C)C)c2)c(O)c1` (stereo not drawn) registered a melting point of 163 to 165 °C.

For the compound `Cc1nn(-c2cc(C(F)(F)F)ccc2Cl)cc1C(=O)O`, the melting point lay in the range of 206 to 208 °C.

Consider `O=S(=O)(c1ccccc1)c1ccc(Oc2ccc(Cl)c(Cl)c2)nc1`, for which the melting point was in the range of 113 to 114 °C.

`CCCCc1ccc(-c2[nH]c(=O)n(C3CCCCC3)c2C)cc1` yielded a melting point of 236 °C.

Consider `CC1CC(=O)N(c2ccccn2)N=C1c1ccc(OC2CCN(C(=O)OC(C)(C)C)CC2)cc1` (stereo not drawn), for which the melting point was in the range of 164 to 166 °C.

In turn, `CCOC(=O)C1=Cc2cc(S(C)=O)ccc2OC1C(F)(F)F` (stereo not drawn) displayed a melting point of 92.2 to 98.4 °C.

In turn, `O=C(Nc1ccc(OCCN2CCOCC2)c2ccccc12)c1cc(F)cc(N2CCCCC2)c1` showed a melting point of 150 to 151 °C.

Compound `O=C(c1ccccc1)c1ccc2nc(-c3c[nH]c(C(=O)N4CCCC4)c3)[nH]c2c1` returned a melting point of 160 to 162 °C.

`COc1ccc(N=C(C#Cc2ccccc2OC)N2CCN(Cc3ccc(C)cc3)CC2)cc1` came in with a melting point of 83 °C.

The compound `COc1cc(CBr)ccc1-c1ccccc1` yielded a melting point of 187 to 189 °C.

The compound `Nc1ccc(S(=O)(=O)NC(=S)NC23CC4CC(CC(C4)C2)C3)cc1` yielded a melting point of 176 to 179 °C.

Regarding `COc1ncc(CN2C(=O)C3(COc4cc5c(cc43)OCCO5)c3ccccc32)cn1` (stereo not drawn), the melting point is 102 to 104 °C.

Regarding `CC(Cc1c[nH]c2ccccc12)(NC(=O)OC1C2CC3CC(C2)CC1C3)C(=O)NCC(CSCC(=O)O)c1ccccc1` (stereo not drawn), the melting point lay within 78 to 93 °C.

The compound `CCOC(=O)c1csc2nc(C(=O)OC)cn12` had a melting point of 187 to 189 °C.

For the compound `Clc1nc(N2CC3CCC(CC3)C2)nc(N2CC3CCC(CC3)C2)n1`, the melting point fell in the range of 195 to 200 °C.

The compound `CC(C)(C)c1cc(CCc2ccccc2NC(=O)NCCc2ccccn2)cc(C(C)(C)C)c1O` had a melting point of 180 °C.

On to `CCn1c(=O)c2[nH]c(/C=C/c3ccc(OC)c(C)c3)nc2n(CC)c1=O`, for which the melting point was above 270 °C.

For the compound `NS(=O)(=O)c1cc(NC(=O)c2cnn3c(C(F)(F)F)cc(-c4ccc(Cl)cc4)nc23)c(Cl)s1`, the melting point worked out at 329 °C.

Take `NC(CSSCCCN1C(=O)NCC1c1ccccc1)C(=O)O` (stereo not drawn): the melting point fell in the range of 172 to 178 °C.

For the compound `O=c1[nH]c2cc(Cl)ccc2c(O)c1Sc1ccc(O)cc1`, the melting point is above 300 °C.

As for `N/C(=C1/Sc2ccc(Cl)cc2C1=O)c1ccccc1Cl`, the melting point was in the range of 199 to 201 °C.

For `Cc1c(SCc2ccco2)ccnc1CSc1nc2ccccc2n1CCN(C)C`, the melting point lay within 87 to 89 °C.

Take `CC(=O)Nc1ccc(C2=NNC(=O)Cc3cc4c(cc32)OCO4)cc1`: the melting point lay within 177 to 180 °C.

For the compound `NC(=NCC(F)(F)F)Nc1ccnc(OCCCO)n1`, the melting point was in the range of 118 to 120 °C.

Take `Cc1nc(-c2c(Cl)cc(C(F)(F)F)cc2Cl)[nH]c1S(N)(=O)=O`: the melting point lay in the range of 266 to 267 °C.

On to `Cc1ccc2c(c1)N=C(N1CCN(C)CC1)c1cscc1O2`, for which the melting point stood at 222 °C.

In the case of `O=C1C2CCCCC2C(=O)N1c1cc(C(F)(F)F)cc(C(F)(F)F)c1` (stereo not drawn), the melting point lay in the range of 85 to 87 °C.

`CCCCOc1c(CNC(=O)OC(C)(C)C)n(CC(C)C)c(=O)c2ccc(C(=O)OC)cc12` showed a melting point of 148 to 149 °C.

For `CC(O)(CNc1ccc(S(=O)(=O)c2ccccc2)cc1)C(F)(F)F` (stereo not drawn), the melting point is 145 to 146 °C.

For the compound `COc1cc2c(cc1OC)N(C)C(=O)CN=C2c1ccc(Cl)c(Cl)c1`, the melting point is 174 to 177 °C.

Consider `CC1=C(C)C(Cl)N(c2ccc(Cl)c(Cl)c2)C1=O` (stereo not drawn), for which the melting point was in the range of 95 to 96 °C.

The compound `Nc1c(SC(F)(F)F)cnn1-c1c(Cl)cc(C(F)(F)F)cc1Cl` gave a melting point of 113 to 117 °C.

Take `O=C1Nc2ccccc2C1=Cc1cccs1`: the melting point was 208 to 210 °C.

Turning to `Cn1ncc2[nH]c3ccc(Cc4cccc(C(N)=O)c4)cc3c(=O)c21`, the melting point was above 300 °C.

Regarding `O=C(c1ccccc1F)c1cc(Cl)ccc1I`, the melting point was 78 to 81 °C.

For `O=C1c2ccccc2-c2ccc(-c3nc(COc4ccc(CCCn5ccnc5)cc4)co3)cc21`, the melting point lay in the range of 153 to 154 °C.

In turn, `CN1C(=O)C2CCCCC2N=C1c1ccccc1` (stereo not drawn) registered a melting point of 79 to 82 °C.

`CC(=O)Nc1ccc(S(=O)(=O)Nc2cccnc2Nc2ccccc2)cc1` displayed a melting point of 234 to 236 °C.

Consider `CCCCCC(CC(=O)Nc1cc(C(N)=O)ccc1C(C)(C)C)c1ccc(C(O)CCC)cc1OC` (stereo not drawn), for which the melting point is 153 to 155 °C.

In the case of `CC(C)C1NC(=O)OC1C(F)(F)F` (stereo not drawn), the melting point was 71 to 72 °C.

As to `CNC(=O)N(Cc1ccc(C(C)(C)C)cc1)NC(=O)OC(C)(C)C`, the melting point lay within 124 to 129 °C.

Compound `O=Cc1cccn2cc(C(F)(F)F)nc12` gave a melting point of 98 to 100 °C.

As to `CCNC(=S)NNC(=O)OC`, the melting point came out at 117 °C.

In the case of `CN(CCCC(C(N)=O)(c1ccccc1)c1ccccc1)CCc1ccc2c(c1)OCO2`, the melting point was 89 to 90 °C.

For `Cc1cn(C(C)(C)C(=O)N(C)C)nc1-c1ccccc1C#N`, the melting point is 124 to 126 °C.

Regarding `O=C(Cc1ccc(CCNS(=O)(=O)c2ccc(Cl)cc2)cc1)Nc1nnn[nH]1`, the melting point was 168 to 170 °C.

As to `CS(=O)(=O)c1c2ccccc2c(C=O)c2ccccc12`, the melting point fell in the range of 216 to 217 °C.

Consider `COc1cc(Nc2nc(O)c3c(n2)C(c2ccccc2)CN(C)C3)ccc1-n1cnc(C)c1` (stereo not drawn), for which the melting point lay within 152 to 155 °C.

The compound `N#Cc1ccc(C(O)(Cc2ccccc2)Cc2ccccc2)cc1` yielded a melting point of 153 °C.

Compound `O=C(CCCc1ccccc1)N(O)Cc1ccccc1` came in with a melting point of 72 to 74 °C.

The compound `COC(=O)Cc1cc2cc(O)ccc2s1` came in with a melting point of 136 to 137 °C.

`Cc1nc2ccc(N3CCN[C@H](C)C3)nn2c1-c1ccnc2[nH]ccc12` came in with a melting point of 202 to 204 °C.

`Cn1nc(-c2ccc(Cl)cc2F)cc1O` displayed a melting point of 204 °C.

`CC(C)(C)OC(=O)NCCOc1noc2ccc(F)cc12` showed a melting point of 104 to 105 °C.

Take `C=CCOc1nc(Nc2ccc(OC)nc2)nc2c1ncn2CCCC`: the melting point is 147 to 149 °C.

`Cc1cc(C)cc(C(=O)N2CCN(C(=O)CBr)C(c3ccc(Cl)c(Cl)c3)C2)c1` (racemic) showed a melting point of 68 to 71 °C.

Consider `CS(=O)(=O)Cc1nnc(-c2ccc3occ(-c4cccc(OC(F)(F)F)c4)c3c2)o1`, for which the melting point was 162 to 163 °C.

On to `CC(C)(C)OC(=O)N1CCC(c2noc3c(C(F)(F)F)cccc23)CC1`, for which the melting point lay within 111 to 113 °C.

`Cc1ncc(C#N)c(Nc2ccc3[nH]ccc3c2C)c1-c1cc2ccccc2o1` returned a melting point of 154 to 155 °C.

As to `COc1ccc(-c2n[nH]c(=O)cc2-c2ccc(OC)c(F)c2)cc1`, the melting point came out at 213 °C.

Turning to `NC(=O)N(O)Cc1sccc1Sc1ccc(Br)cc1`, the melting point was in the range of 124 to 126 °C.

Turning to `CCCCNC(=O)n1c(=NC(F)(F)F)oc2ccc([N+](=O)[O-])cc21`, the melting point was 121 to 122 °C.

As to `O=c1cc(SCc2ccccc2)cco1`, the melting point was in the range of 105 to 106 °C.

With `CC(=O)Nc1ccc(C2=NNC(=O)C2)cc1`, the melting point is 254 to 258 °C.

As to `CCOc1cccc(C)c1N(C(=O)n1nc(OCC)n(C)c1=O)S(N)(=O)=O`, the melting point was 147 °C.

On to `CCCCOc1cc(C(=O)N(C)C)cc(S(N)(=O)=O)c1Cc1ccccc1`, for which the melting point is 199 to 201 °C.

In turn, `COc1cc(Nc2nsc(-c3ccccc3)n2)ccc1-c1cnco1` returned a melting point of 260 to 261 °C.

`O=C(/C=C/c1cccnc1)NCCc1cccc(OCc2ccccc2)c1`: the melting point lay in the range of 115 to 116 °C.

In the case of `O=C(O)c1cn(C2CC2)c2c(F)c(N3CCC(O)C3)c(F)cc2c1=O` (stereo not drawn), the melting point was 276 to 278 °C.

For the compound `O=C(O)c1ccccc1OCCN1CCC(c2cn(Cc3ccco3)c3cc(F)ccc23)CC1`, the melting point was in the range of 174 to 175 °C.

`O=C(CCCCC1(C(=O)O)CCCC1)CCCCC1(C(=O)O)CCCC1` returned a melting point of 99 to 103 °C.

As for `CC1(C)Cc2cc(NC(N)=O)c3c(c2C(c2ccccc2)=N1)CC(C)(C)O3`, the melting point was in the range of 151 to 153 °C.

`O=C1CSC(C(=O)O)Cc2cc3c(cc21)OCO3` (stereo not drawn) registered a melting point of 234 to 235 °C.

On to `CC(C)(C)SN1C(=O)NC(=O)C1=O`, for which the melting point was in the range of 150 to 152 °C.

In the case of `O=C(O)Cc1c(C(=O)O)c2cc(Oc3cccc(OC(F)(F)F)c3)ccc2n1-c1ccc(OC(F)(F)F)cc1`, the melting point lay in the range of 188 to 193 °C.

In turn, `CN(C(=O)Nc1ccc(Cl)cc1)n1cnc2ccccc2c1=O` displayed a melting point of 186 to 188 °C.

`CCN(CC)C(=O)n1cnc(Sc2c(C)cc(C)c(C)c2OC)n1` registered a melting point of 138 to 139 °C.

`O=Cc1cc(Cl)cc2c1OC(C(F)(F)F)C(C(=O)O)=C2` (stereo not drawn) showed a melting point of 243 to 252 °C.

The compound `CC#COc1ccc2c(=O)c3ccccc3oc2c1` came in with a melting point of 142 to 144 °C.

Compound `N#Cc1cc(-c2ccc(Cl)cc2)c[nH]c1=O` came in with a melting point of 278 to 280 °C.

Take `CCCCc1cn(-c2c(C)cc(C(C)(C)C)cc2C)c(=O)n1Cc1ccc(-c2ccccc2-c2nnn[nH]2)cc1`: the melting point is 134 to 135 °C.

`CCCCCCCCCCCCCCCCCCOCCC(=O)COCc1ccccc1` gave a melting point of 33 to 34 °C.
